Laboratory results published in patent US11484601B2, “Targeting M2-like tumor-associated macrophages by using melittin-based proapoptotic peptide” (TWI[…]., priority 2018, dated 2022).

System: M2 macrophage (RAW264.7 differentiated into M2-type with IL-4 and IL-13)
Assay: MTS cell viability assay, M2-type macrophage
Assay type: cell-based, mouse
Conditions: compared with MEL and DM1 alone
Experimental: More specifically, dKLA (SEQ ID NO: 2), MEL (SEQ ID NO: 1), MEL-dKLA (SEQ ID NO: 3; […]-d[KLAKLAKKLAKLAK]) peptide and 5-carboxyl tetramethylrhodamine (TMR)-conjugated dKLA, MEL and MEL-KLA peptides were purchased from GenScript (Piscataway, N.J., USA). TMR was conjugated with the amino group located at the N-terminal of the peptide. Regarding all of the peptides, 95% or greater purified peptides were used. Murine Lewis lung carcinoma (LLC) cells and macrophage RAW264.7 of mice were cultured in Dulbecco's modified Eagle's medium (DMEM; Welgene, Korea) to which 10% heat-inactivated fetal bovine serum (Welgene), 100 U/mL penicillin and 100 μg/mL streptomycin (Invitrogen, CA, USA) were added. Macrophage (RAW264.7) differentiated into M2-type was treated with IL-4 and IL-13 in the medium for 24 hours. After the treatment, the cells were cultured in a state in which serum was insufficient for 48 hours. M1-type macrophage was treated with 1 ng/mL of LPS for 24 hours to induce differentiation.
The cell viability test was measured via the MTS assay. RAW264.7 macrophage was differentiated into M1-type or M2-type macrophage which was inoculated onto a 96-well plate at 3×10^4 cells/well. The next day, the macrophage was treated with each of PBS, dKLA, MEL and MEL-dKLA. After 24 hours, the culture solution was replaced and the cell was treated with 20 μL MTS reaction solution (Promega, WI, USA), followed by reaction at 37° C. Then, […] was measured at 490 nm to measure cell viability.
The MEL-DM1 anticancer drug conjugation method and cell test method are as described above.

MEL-DM1: melittin with N-terminal maleimide covalently bound to the free-sulfhydryl group of maytansine DM1
M2 selective cell killing effect: higher M2 selective cell killing effect
